The compounds below were run on Plasmodium falciparum 3D7 (assay: pEC50, asexual blood-stage growth inhibition). Conditions: 72 h.
Protocol: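 Held-out test set measured in the Guy lab in 2014 with the same procedure as the primary St. Jude screen. P. falciparum 3D7 blood-stage culture (2% hematocrit, 1% parasitemia) was treated with compound for 72 h at 37 °C, and growth was read by SYBR Green I fluorescence. EC50 came from a four-parameter Hill fit over a 10-point dilution series […].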
Work on CCC(C(=O)Nc1ccc(-c2nc3ccccc3[nH]2)cc1)c1ccccc1 (stereo not drawn) yielded a pEC50 of less than 4.82.
In the case of Oc1nc(/C=C/c2cccc3ccccc23)nc2ccccc12, the pEC50 is reported as less than 4.82.
For O=c1c(Oc2ccc3ccccc3c2)c(C(F)(F)F)oc2c(CN3CCCC3)c(O)ccc12, the pEC50 was 5.27.
Compound Oc1ccc(Cl)cc1CN1CCCC(N2CCCC2)C1 (stereo not drawn) has a pEC50 of less than 4.82.
Compound Cc1cccc(NCC(O)Cn2c3ccccc3c3ccccc32)c1C (stereo not drawn) has a pEC50 of less than 4.82.
O=C1CC(c2c(F)cccc2Cl)C2=C(CC(c3ccc(F)cc3)CC2=O)N1 (stereo not drawn) was tested, and the pEC50 was less than 4.82.
In the case of CC(C)c1ccc(/C=C/C(=O)Nc2cccc(F)c2)cc1, the pEC50 is reported as less than 4.82.
CCOC(=O)C1=C(C)NC2=C(C(=O)CC(c3ccc(Cl)cc3)C2)C1c1ccc(OCC)cc1 (stereo not drawn) gave a pEC50 of less than 4.82.
With Nc1ccc(C(=O)Nc2ccc(-c3nc4cc(NC(=O)c5ccc(N)cc5)ccc4[nH]3)cc2)cc1 the pEC50 was less than 4.82.
In the case of O=c1c(Oc2ccccc2)c(C(F)(F)F)oc2c(CN3CCCCC3)c(O)ccc12, the pEC50 is reported as less than 4.82.
In the case of COc1ccc(Oc2c(C(F)(F)F)oc3c(CN4CCCC(C)C4)c(O)ccc3c2=O)cc1 (stereo not drawn), the pEC50 is reported as less than 4.82.
CCCn1c(=N)n(CC(O)COc2ccc(Cl)cc2)c2ccccc21 (stereo not drawn) showed a pEC50 of less than 4.82.
Work on Cc1cc(C)nc(Nc2ncc(O)n2-c2cccc(C(F)(F)F)c2)n1 yielded a pEC50 of less than 4.82.
In the case of CCOc1cc(C2C(C(=O)OCCOC)=C(C)NC3=C2C(=O)CC(c2ccc(Cl)cc2)C3)ccc1O (stereo not drawn), the pEC50 is reported as 5.52.
CC(C)(C)NC(=O)c1cn(C2CCCCC2)cc(C(=O)NC2CCN(Cc3ccccc3)CC2)c1=O showed a pEC50 of less than 4.82.
In the case of CCN(CC)CCn1c(=N)n(CC(O)COc2ccccc2)c2ccccc21 (stereo not drawn), the pEC50 is reported as less than 4.82.
CCCCNC(=O)c1cn(C2CCCCC2)cc(C(=O)NC2CCN(Cc3ccccc3)C2)c1=O (stereo not drawn) gave a pEC50 of less than 4.82.
Work on Cc1ccc(C2CC(C(F)(F)F)n3nc(C(=O)N(Cc4ccccc4)Cc4ccccc4)cc3N2)cc1 (stereo not drawn) yielded a pEC50 of less than 4.82.
Work on CCN1/C(=C/c2sc3ccc(O)cc3[n+]2CC)C=Cc2cc(C)ccc21 yielded a pEC50 of 6.3.
Cc1cccc(NC(=O)/C=C/c2ccccc2Cl)c1 gave a pEC50 of less than 4.82.
CC(C)(C)NC(=O)c1cn(C2CCCCC2)cc(C(=O)N2CCC(c3ccccc3)CC2)c1=O was tested, and the pEC50 was less than 4.82.
Work on COC(=O)c1ccc(NC(=O)/C=C/c2ccccc2Cl)cc1 yielded a pEC50 of 5.26.
Work on O=C(c1ccccc1)N1CCN(c2ccc([N+](=O)[O-])c(NC3CC3)c2)CC1 yielded a pEC50 of less than 4.82.
CN1CCN([C@@H]2CCN(Cc3cc(Cl)ccc3O)C[C@H]2O)CC1 showed a pEC50 of less than 4.82.
N=c1n(CCN2CCCCC2)c2ccccc2n1CC(O)c1cccc2ccccc12 (stereo not drawn) gave a pEC50 of 5.49.
CCOC(=O)c1cnc2c(C)cccc2c1Nc1cccc(C(C)=O)c1 gave a pEC50 of 5.35.
Work on CC[n+]1c(/C=C/c2cc(C)n(-c3ccccc3)c2C)sc2ccccc21 yielded a pEC50 of less than 4.82.
Work on COc1ccc(CCN2C(=O)N(c3cccc(Cl)c3)C(=O)C2CC(=O)Nc2ccc(F)cc2)cc1 (stereo not drawn) yielded a pEC50 of less than 4.82.
COc1ccc(C2CC(=O)C3=C(C2)NC(=O)CC3c2ccc(Cl)cc2Cl)cc1OC (stereo not drawn) gave a pEC50 of 5.7.
COc1cc(C2CC(=O)NC3=C2C(=O)CC(c2ccc(C)cc2)C3)ccc1O (stereo not drawn) showed a pEC50 of less than 4.82.
Cc1ccc2c(c1)c1c3n2CCCN(Cc2ccc(C(C)C)cc2)C3CCC1 (stereo not drawn) showed a pEC50 of less than 4.82.
In the case of CCCCN(CCCC)CC(O)COc1ccccc1C (stereo not drawn), the pEC50 is reported as 6.06.
Compound OC(CNCCc1ccccc1)c1ccccc1 (stereo not drawn) has a pEC50 of 5.05.
COc1cc(C2CC(=O)NC3=C2C(=O)CC(c2ccc(OC)c(OC)c2)C3)c(OC)cc1Br (stereo not drawn) showed a pEC50 of 6.86.
With C=CCN1C(=O)N(c2ccc(Cl)cc2)C(=O)C1CC(=O)Nc1ccc(F)cc1 (stereo not drawn) the pEC50 was less than 4.82.
Cc1ccc2nc(-c3cccnc3)cc(C(=O)N3CCN(C(c4ccccc4)c4ccccc4)CC3)c2c1 was tested, and the pEC50 was 5.71.
For CC1CCN(CC(O)Cn2c3ccc(Cl)cc3c3cc(Cl)ccc32)CC1 (stereo not drawn), the pEC50 was less than 4.82.
Compound COc1ccccc1-c1cc(C(=O)N2CCC(Cc3ccccc3)CC2)c2ccccc2n1 has a pEC50 of less than 4.82.
With CCOC(=O)c1c(C)oc2ccc(OC)cc12 the pEC50 was less than 4.82.
COc1ccc(N2CCN(C(=O)c3ccc(C)cc3)CC2)c([N+](=O)[O-])c1 gave a pEC50 of 5.23.
CCOC(=O)C1=C(C)NC2=C(C(=O)CC(c3ccc(Cl)cc3)C2)C1c1ccc(OC)cc1 (stereo not drawn) gave a pEC50 of 5.93.
Cc1ccc(OCC(O)CNC2CCCC2)c(C)c1 (stereo not drawn) was tested, and the pEC50 was 5.19.
Cc1ccc2[nH]c(-c3ccc(NC(=O)c4ccc(C)c(C)c4)cc3)nc2c1 showed a pEC50 of 5.44.
In the case of OC(CNc1ccccc1)Cn1c2ccc(Cl)cc2c2cc(Cl)ccc21 (stereo not drawn), the pEC50 is reported as 5.36.
CC(C)(C)NCC(O)Cn1c2ccccc2c2ccccc21 (stereo not drawn) was tested, and the pEC50 was 5.21.
For CCN1/C(=C/C=C/C=C/c2sc3ccccc3[n+]2CC(=O)O)Sc2ccccc21, the pEC50 was less than 4.82.
For CCCCNC(=O)c1cn(C2CCCCC2)cc(C(=O)NC2CCN(Cc3ccccc3)CC2)c1=O, the pEC50 was less than 4.82.
For CC(C)CCn1cc(C(=O)NC(C)(C)C)c(=O)c(C(=O)N2CCN(C/C=C/c3ccccc3)CC2)c1, the pEC50 was less than 4.82.
Work on COCCNCC(O)Cn1c2ccc(Cl)cc2c2cc(Cl)ccc21 (stereo not drawn) yielded a pEC50 of 5.63.
CC(C)c1ccc(/C=C/C(=O)Nc2ccc(F)cc2)cc1 showed a pEC50 of 5.21.
With CCOC(=O)c1cnc2ccccc2c1Nc1ccc2c(c1)OCCO2 the pEC50 was less than 4.82.
CC(=O)Nc1ccc(-c2nc3cc(-c4nc5cc(NC(C)=O)ccc5[nH]4)ccc3[nH]2)cc1 gave a pEC50 of 6.5.
Compound CCOC(=O)C1=C(C)NC2=C(C(=O)CC(c3ccc(Cl)cc3)C2)C1c1cccc(OC)c1OC (stereo not drawn) has a pEC50 of less than 4.82.

From the supplement of paper PMC5580409
